The values that follow come from PMC11283454 (Nature Communications, 2024).

Peptide text beside a SMILES is read from it. * marks the point of attachment. Cbz = O=C(OCc1ccccc1)* Where only a bound is given, the exact number is not on record here.

Assay [1] has as its target T1, hATE1 (Homo sapiens, UniProt O95260). Kind of assay: Differential scanning fluorimetry of hATE1 with or without ligands. The following applies: DSF; for change of melting temperature of hATE1 in the presence of ligand: absence of tRNA, result in words.
Assay [2] has as its system RGS4. Kind of assay: Immunoblotting, proteasomal flux. The following applies: MG132 10 μM, 6 h. On the technique in general: In western blotting, separated proteins are transferred to a membrane and probed.
The target in assay [3] is T1, hATE1. Kind of assay: MST direct binding assay, hATE1-peptide interaction. The following applies: with vs without A + T arms.
For another assay, the system named is human ATE1. Kind of assay: Intact protein analysis of purified ATE1. The following applies: purified recombinant ATE1, GST-tag removed, LC-MS.
Assay [4] concerns RGS4. As to the kind of experiment: Immunocytochemistry, RGS4 level in ATE1 deficient HeLa cells. The settings on record: ATE1-KO HeLa cells.

T1 sequence (O95260 1-518 isoform O95260-2): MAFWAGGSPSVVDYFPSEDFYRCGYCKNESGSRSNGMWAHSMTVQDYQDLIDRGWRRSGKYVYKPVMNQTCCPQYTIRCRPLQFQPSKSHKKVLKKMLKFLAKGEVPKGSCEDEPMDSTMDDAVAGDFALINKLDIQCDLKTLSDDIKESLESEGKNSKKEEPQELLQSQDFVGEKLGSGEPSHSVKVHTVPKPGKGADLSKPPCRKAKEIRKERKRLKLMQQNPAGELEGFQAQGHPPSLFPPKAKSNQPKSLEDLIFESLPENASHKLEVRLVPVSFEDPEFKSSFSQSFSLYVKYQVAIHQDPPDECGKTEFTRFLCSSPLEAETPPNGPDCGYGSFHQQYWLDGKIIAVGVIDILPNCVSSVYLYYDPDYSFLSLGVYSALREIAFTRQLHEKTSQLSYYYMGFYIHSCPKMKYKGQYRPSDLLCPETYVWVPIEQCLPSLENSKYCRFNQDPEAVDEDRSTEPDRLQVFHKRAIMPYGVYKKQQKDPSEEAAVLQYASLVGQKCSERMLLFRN

Consider `O=C(O)CN(CCN(CC(=O)O)CC(=O)O)CC(=O)O` [EDTA], for which, at hATE1 [1] (increasing amount of EDTA, duplicate measurements), the “thermal stability decrease of ATE1 on EDTA treatment” value is ~ 7 °C.
With `CC(C)C[C@@H](C=O)NC(=O)[C@H](CC(C)C)NC(=O)[C@H](CC(C)C)NC(=O)OCc1ccccc1` [MG132] (Cbz-Leu-Leu-Leu-aldehyde), in the assay with RGS4 [2] (ATE1-KO HeLa cells), the “RGS4 accumulation post-MG132” value is recorded as “no RGS4 accumulation”. Moreover, in the assay on RGS4 [2] (WT ATE1 HeLa cells), the “normalized P.F. index (fold change), RGS4 accumulation” value is listed as ~ 29 fold change.
`N=C(N)NCCC[C@H](N)C(=O)O` [free arginine, arginine]: the “change of melting temperature of hATE1 in the presence of ligand” value on hATE1 [1] was “no change was observed”.
For the compound `NC(=O)CC[C@H](N)C(N)=O` [glutamine amide], the “change of melting temperature of hATE1 in the presence of ligand” value at hATE1 [1] was “no change was observed”.
On to RDDIAA-FAM, for which, on hATE1 [3], the “fold enhancement of binding affinity by tRNA-mimetic (A + T arms)” value is listed as 15 -fold.
“WT hATE1: human arginyl-tRNA-protein transferase 1 isoform 2, wild type, recombinant”: in the assay with human ATE1, the “small arginylated fraction of ATE1” value is < 3 % of total. For the same compound, the “RGS4 level by immunostaining” value in the assay on RGS4 [4] is given as “but not in those transfected with WT ATE1”. Also, in the assay on RGS4 [2] (ATE1-KO HeLa cells expressing the ATE1 construct), the “RGS4 proteasomal flux / RGS4 stabilization” value is listed as “restored the P.F. index”.
